Assay results: patent US12521396B2, “Pharmaceutical compositions comprising a MENIN inhibitor” (Kura Oncology, Inc., priority 2023, dated 2026)

Key:
[1] = Excipient compatibility and formulation stability studies; type: physicochemical; conditions: excipient compatibility studies for tablet formulations
From the text: Compound 1 drug substance may have a low bulk density, small particle size, and needle-like morphology, all leading to poor flowability. Dry granulation using roller compaction was improved the powder flow and bulk density characteristics to enable capsule-filling. In addition, while glidants such as talc and colloidal silicon dioxide were not effective in improving powder flow and bulk density characteristics, mannitol and microcrystalline cellulose fillers improved the blend flow in the roller compactor.
In particular, these studies indicated less risk of instability in the presence of lactose as a diluent compared to mannitol.

[2] = Solid form stability on standing after recrystallization from MEK/IPA; type: physicochemical; conditions: recrystallized from MEK/IPA at 40° C., filtered at 25° C.
Procedure: Preparation A: Amorphous Compound 1 (prepared as described in U.S. Pat. No. 10,781,218, which is herein incorporated by reference in its entirety) was dissolved in 1:1 MEK/IPA v/v (4.5 mL/g) at ˜50-65° C. under N2. The solution was cooled to 33-37° C. Seed crystals were added (0.8-1.2 wt % relative to Compound 1) and the mixture was stirred for 4-6 h at 33-37° C. The mixture was cooled to 23-27° C. over 3-4 hours and stirred for 16-24 hours. Isopropanol (8.6-9.1 mL/g Compound 1) was added at 23-27° C. over 9-11 hours and then the mixture was stirred for 5-6 hours. The mixture was cooled to 3-8° C. over 4-6 hours and stirred for at least 24 hours. The resulting solid precipitate was collected at 5° C. The filter cake was rinsed with IPA (1.8-2.1 mL/g Compound 1) at 3-8° C. and dried under vacuum at 45-55° C. for 24-32 hours. XRPD analysis confirmed the isolated material as crystalline Compound 1, Form 1. Purity of 99.5% by HPLC and total residual solvents was about 0.4% wt by ^1H NMR. Recrystallization of Compound 1, Form 1, in MEK/IPA (6 v/12 v) by dissolving in MEK and adding IPA in portions at 25° C., stirring the suspension after addition of each IPA portion, cooling to 5° C., and stirring at 5° C. for 20 h produced a wet cake that was a mixture of two crystalline forms (Form 2 and Form 5) that were not Form 1. […]

| SMILES | Stability of Compound 1 with excipients [1] | Solid form stability upon standing [2] |
| --- | --- | --- |
| CNc1nc(NC2CCN(Cc3ccc4c(cc(C#N)n4C[C@H](C)N4CCN(S(C)(=O)=O)CC4)c3C)CC2)c2cc(CC(F)(F)F)sc2n1 [Compound 1, (S)-4-methyl-5-((4-((2-(methylamino)-6-(2,2,2-trifluoroethyl)thieno[2,3-d]pyrimidin-4-yl)amino)piperidin-1-yl)methyl)-1-(2-(4-(methylsulfonyl)piperazin-1-yl)propyl)-1H-indole-2-carbonitrile] | impact to Compound 1 stability with certain excipients | – |
| CNc1nc(NC2CCN(Cc3ccc4c(cc(C#N)n4C[C@H](C)N4CCN(S(C)(=O)=O)CC4)c3C)CC2)c2cc(CC(F)(F)F)sc2n1 [Form 1, (S)-4-methyl-5-((4-((2-(methylamino)-6-(2,2,2-trifluoroethyl)thieno[2,3-d]pyrimidin-4-yl)amino)piperidin-1-yl)methyl)-1-(2-(4-(methylsulfonyl)piperazin-1-yl)propyl)-1H-indole-2-carbonitrile] | – | converted to Form 5 |
